# Test results published in patent US6277886A (priority 1996, dated 2001).
# Where “and” joins values, the source holds several entries; their conditions need not be identical. Identical values can stand only once. Like-named read-outs stand apart in the source and are kept apart here.
# Tested on: anesthetized cat
# Details: for Change in MABP / Change in PR: 45-60 min
# Procedure: Cats were anesthetized with i.v. nembutal 25 mg/kg. Anesthesia was maintained by additional injections of nembutal, 5 mg/kg, as needed. The femoral artery was cannulated and connected to a Statham pressure transducer for blood pressure recordings on a Grass multichannel Polygraph. The femoral vein was cannulated for i.v. injection of drugs.
structure (smiles),measurement,setting,value
"C#CCN[C@H]1CCc2ccccc21 [S(-)PAI, S-(-)-N-propargyl-1-aminoindan]",Change in MABP,"dose 0.03, i.v.",7 mmHg and 5 mmHg
same,Change in MABP,"dose 0.1, i.v.",-12 mmHg
same,Change in PR,"dose 0.1, i.v.",0 beats/min
same,Change in MABP,"dose 1.0, i.v.",2 mmHg
same,Change in PR,"dose 1.0, i.v.",-5 beats/min
same,mean arterial blood pressure (MABP) and heart rate (HR),"i.v., up to cumulative dose of 1 mg/kg, 45-60 minutes, in words",neither mean arterial blood pressure (MABP) nor heart rate (HR) were affected
